The values that follow come from ChEMBL document CHEMBL4312036, “Antiproliferative activity and mode of action analysis of novel amino and amido substituted phenantrene and naphtho[2,1-b]thiophene derivatives” (Eur J Med Chem, 2020).

pIC50: −log10 of the molar value. Active and inactive are the calls of the source. The calls are words filed in the database; no cut-off is given here. Bounds are passed on as bounds.

As a reminder, the pIC50 is the negative decadic logarithm of the IC50, by convention in mol/L.

The test system of one test is A549. The test can be described thus: Antiproliferative activity against human A549 cells incubated for 72 hrs by MTT assay. Conditions: A549, 72 h. In kind it is functional, cell-based. (In general: Tetrazolium dyes change colour on reduction, which living cells bring about.)
In a further test the test system is CFPAC-1. The test can be described thus: Antiproliferative activity against human CFPAC-1 cells incubated for 72 hrs by MTT assay. The test is classed as functional, cell-based. Conditions: CFPAC-1, 72 h.
The subject of the next test is SW-620. Kind of test: Antiproliferative activity against human SW620 cells incubated for 72 hrs by MTT assay. The test is classed as functional, cell-based. To be noted: SW-620, 72 h.
The test system of a further test is HFF. Kind of test: Cytotoxicity against HFF cells assessed as reduction in cell viability incubated for 72 hrs by MTT assay. In kind it is cell-based. Conditions: Homo sapiens.
In test [1] the test system is HeLa. The test can be described thus: Upregulation of HIF1 protein level in human HeLa cells at 2 times IC50 incubated for 48 hrs by Western blot analysis. The test is classed as functional, cell-based.
Test [2] concerns HeLa. The test can be described thus: Upregulation of HIF1 protein level in human HeLa cells at 2 times IC50 incubated for 72 hrs by Western blot analysis. In kind it is functional, cell-based. (In general: A western blot detects proteins with antibodies after separation by electrophoresis.)
The subject of test [3] is HepG2. Kind of test: Upregulation of HIF1 protein level in human HepG2 cells at 2 times IC50 incubated for 72 hrs by Western blot analysis. In kind it is functional, cell-based.
Test [4] relates to HeLa. Kind of test: Downregulation of MEK1/2 protein level in human HeLa cells at 2 times IC50 incubated for 72 hrs by Western blot analysis. The test is classed as functional, cell-based.
Test [5] deals with HepG2. The test can be described thus: Downregulation of MEK1/2 protein level in human HepG2 cells at 2 times IC50 incubated for 72 hrs by Western blot analysis. In kind it is functional, cell-based.
Test [6] deals with HeLa. The test can be described thus: cells. Conditions: Homo sapiens, 72 h.
Description: Antiproliferative activity against human HeLa cells incubated for 72 hrs by MTT assay
The test system of test [7] is HepG2. Kind of test: cells. Conditions: Homo sapiens, HepG2, 72 h.
Description: Antiproliferative activity against human HepG2 cells incubated for 72 hrs by MTT assay
The test system of test [8] is HeLa. The test can be described thus: Downregulation of MEK1/2 protein level in human HeLa cells at 2 times IC50 incubated for 48 hrs by Western blot analysis. The test is classed as functional, cell-based.

Turning to `N#C/C(=C\c1ccc(C#N)cc1)c1cccs1`, the pIC50 with A549 was 4.32; with CFPAC-1, 4.28; with SW-620 it was 4.21; in the test with HFF it was less than 4.00; in the test on HeLa [6] it was 6.68; in the test on HepG2 [7], 6.52. In addition, the outcome in the test with HeLa [1], with HeLa [2], with HepG2 [3], in the test on HeLa [4] and in the test on HepG2 [5] was Active.
In the case of `CC(C)CNC(=O)c1ccc2cc(C(=O)NCC(C)C)c3sccc3c2c1`, the pIC50 was 4.56 with A549; less than 4.00 with CFPAC-1; 6.05 with SW-620; 6.13 in the test with HFF; 4.97 in the test with HeLa [6]; 4.07 in the test with HepG2 [7].
Consider `N#Cc1cc2ccc(N3CCCCC3)cc2c2ccccc12`, for which the pIC50 is 4.23 with A549; less than 4.00 with CFPAC-1; less than 4.00 in the test with SW-620; less than 4.00 in the test with HFF; 4.23 in the test with HeLa [6]; 4.09 in the test with HepG2 [7].
In the case of `N#Cc1cc2ccccc2c2ccccc12`, the pIC50 was 4.14 in the test with A549; 4.10 with CFPAC-1; less than 4.00 with SW-620; less than 4.00 in the test on HFF; 4.52 in the test with HeLa [6]; 4.31 in the test with HepG2 [7].
Regarding `N#Cc1ccc2cc(C#N)c3ccccc3c2c1`, the pIC50 in the test with A549 is 5.48; with CFPAC-1, 5.09; in the test on SW-620 it was 5.17; with HFF it was 5.75; with HeLa [6], 6.19; in the test on HepG2 [7], 4.96.
With `N#Cc1cc2ccc(F)cc2c2ccsc12`, the negative-log IC50 (pIC50) with A549 was 4.30; with CFPAC-1 it was 4.29; in the test on SW-620, 4.37; with HFF, 4.79; in the test with HeLa [6], 4.93; with HepG2 [7] it was 4.49.
For `N#C/C(=C\c1ccccc1)c1ccccc1`, the pIC50 in the test with A549 is 4.19; in the test with CFPAC-1 it was 4.05; in the test on SW-620, less than 4.00; in the test on HFF it was 4.03; in the test on HeLa [6] it was 4.31; in the test with HepG2 [7], 4.09.
On to `N#Cc1cc2ccccc2c2ccsc12`, for which the pIC50 was 4.30 with A549; 4.25 in the test with CFPAC-1; 4.15 in the test on SW-620; 4.07 in the test with HFF; 4.52 in the test on HeLa [6]; 4.27 in the test on HepG2 [7].
Consider `CN(C)CCCNC(=O)c1cc2ccccc2c2ccsc12`, for which the pIC50 with A549 is 4.69; in the test with CFPAC-1, 4.76; in the test on SW-620, 4.75; with HFF, 4.62; in the test on HeLa [6], 4.84; with HepG2 [7] it was 4.63.
Regarding `N#C/C(=C\c1ccc(C#N)cc1)c1ccccc1`, the pIC50 with A549 was 5.08; in the test on CFPAC-1, 5.17; in the test with SW-620, 5.04; in the test with HFF it was 5.22; in the test with HeLa [6], 6.48; in the test on HepG2 [7], 6.28. In addition, the result with HeLa [1], in the test with HeLa [2], in the test with HepG2 [3], with HeLa [8] and in the test on HepG2 [5] was Active.
`CC(C)CNC(=O)c1cc2ccccc2c2ccsc12`: the pIC50 in the test with A549 is 4.19; in the test on CFPAC-1, 4.01; in the test with SW-620, less than 4.00; with HFF it was 4.01; with HeLa [6] it was 4.40; in the test on HepG2 [7], 4.12.
`N#C/C(=C\c1ccc(F)cc1)c1cccs1`: the pIC50 was 4.39 with A549; 4.47 in the test with CFPAC-1; 4.44 in the test on SW-620; 4.06 in the test on HFF; 5.44 in the test on HeLa [6]; 5.28 with HepG2 [7].
Take `N#C/C(=C\c1ccc(F)cc1)c1ccccc1`: the pIC50 in the test on A549 was 4.34; with CFPAC-1, 4.33; in the test on SW-620, 4.42; with HFF it was 4.28; in the test with HeLa [6], 5.46; in the test with HepG2 [7], 5.11.
Take `CN(C)CCCNC(=O)c1ccc2cc(C(=O)NCCCN(C)C)c3sccc3c2c1`: the pIC50 with A549 was 5.25; in the test on CFPAC-1, 5.18; with SW-620, 5.36; in the test on HFF, 5.23; with HeLa [6], 5.38; in the test with HepG2 [7] it was 4.79.
On to `N#C/C(=C\c1ccccc1)c1cccs1`, for which the pIC50 was 4.23 in the test on A549; 4.01 with CFPAC-1; less than 4.00 in the test on SW-620; 4.07 in the test with HFF; 4.70 in the test with HeLa [6]; 4.36 in the test on HepG2 [7].
As for `N#Cc1cc2ccc(N3CCCCC3)cc2c2ccsc12`, the pIC50 was 4.21 with A549; 4.59 in the test on CFPAC-1; 4.19 in the test with SW-620; 4.21 in the test on HFF; 4.49 in the test on HeLa [6]; 4.21 with HepG2 [7].
For the compound `N#Cc1cc2ccc(F)cc2c2ccccc12`, the pIC50 in the test with A549 was 5.02; in the test with CFPAC-1, 4.88; in the test with SW-620, 5.11; in the test on HFF it was 5.46; in the test with HeLa [6], 5.08; in the test with HepG2 [7], 4.74.
For the compound `CC(C)CNc1ccc2cc(C#N)c3ccccc3c2c1`, the pIC50 in the test on A549 is 4.51; in the test with CFPAC-1 it was 4.45; with SW-620 it was 4.36; in the test on HFF, 4.28; in the test on HeLa [6], 4.63; in the test with HepG2 [7] it was 4.47.
Consider `N#Cc1cc2ccc(N3CCNCC3)cc2c2ccccc12`, for which the pIC50 was 5.26 in the test with A549; 5.21 in the test on CFPAC-1; 5.34 in the test with SW-620; 4.62 with HFF; 5.48 in the test with HeLa [6]; 4.71 with HepG2 [7].
In the case of `N#Cc1ccc2cc(C#N)c3sccc3c2c1`, the pIC50 with A549 was 5.26; in the test on CFPAC-1, 5.09; in the test with SW-620, 5.22; in the test with HFF, 5.29; in the test on HeLa [6], 6.35; in the test on HepG2 [7], 5.14.
In the case of `CC(C)CNC(=O)c1cc2ccccc2c2ccccc12`, the pIC50 is 4.19 in the test on A549; 4.16 with CFPAC-1; 4.21 with SW-620; less than 4.00 with HFF; 4.55 in the test on HeLa [6]; 4.03 in the test with HepG2 [7].
Regarding `CC(C)CNc1ccc2cc(C#N)c3sccc3c2c1`, the pIC50 in the test on A549 was 4.51; in the test on CFPAC-1, 4.73; with SW-620 it was 4.38; in the test with HFF it was 4.01; with HeLa [6], 4.73; in the test with HepG2 [7], 4.32.
Regarding `N#Cc1cc2ccc(N3CCNCC3)cc2c2ccsc12`, the pIC50 in the test on A549 was 5.15; in the test on CFPAC-1 it was 5.44; in the test on SW-620, 5.59; with HFF, 4.43; in the test with HeLa [6], 5.62; in the test on HepG2 [7], 4.68.
